Measurements taken from the supplement of paper PMC10883282.
± gives the standard deviation of the averaged measurements.

Tested on: SW1353
Assay: relative viability vs DMSO control (72 h) (fraction); higher = more viable cells
Procedure, shortened: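 Relative viability was measured with ATPLite and expressed as percent growth, averaged across up to triplicate wells. Sarcoma cell lines had been seeded in 384-well plates to reach 80–90% confluence, dosed after 24 h, and incubated 72 h at 37 °C, 5% CO2. All data were rescaled on a scale where 1 is full and 0 is none.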

Row | SMILES | relative viability (0.00017 µM) | relative viability (0.00051 µM) | relative viability (0.00152 µM) | relative viability (0.00457 µM) | relative viability (0.01372 µM) | relative viability (0.04115 µM) | relative viability (0.1235 µM) | relative viability (0.3704 µM) | relative viability (1.111 µM) | relative viability (3.333 µM) | relative viability (10 µM)
1 | CO[C@H]1C[C@@H]2CC[C@@H](C)[C@@](O)(O2)C(=O)C(=O)N2CCCC[C@H]2C(=O)O[C@H]([C@H](C)C[C@@H]2CC[C@@H](OP(C)(C)=O)[C@H](OC)C2)CC(=O)[C@H](C)/C=C(\C)[C@@H](O)[C@@H](OC)C(=O)[C@H](C)C[C@H](C)/C=C/C=C/C=C/1C [Ridaforolimus] | 0.961 ± 0.028 | 0.905 ± 0.041 | 0.805 ± 0.012 | 0.771 ± 0.011 | 0.747 ± 0.029 | 0.742 ± 0.033 | 0.723 ± 0.016 | 0.72 ± 0.035 | 0.702 ± 0.012 | 0.707 ± 0.012 | 0.682 ± 0.023
2 | O=C(Cc1ccc(-c2ccc(OCCN3CCOCC3)cc2)cn1)NCc1ccccc1 [KX2-391] | 1.06 ± 0.023 | 1.09 ± 0.031 | 1.02 ± 0.014 | 1.01 ± 0.035 | 0.962 ± 0.01 | 0.952 ± 0.011 | 0.607 ± 0.037 | 0.446 ± 0.024 | 0.425 ± 0.018 | 0.462 ± 0.014 | 0.458 ± 0.019
3 | COc1cc2nccc(Oc3ccc(NC(=O)Nc4cc(C)on4)c(Cl)c3)c2cc1OC [Tivozanib] | 0.97 ± 0.029 | 0.983 ± 0.036 | 0.965 ± 0.044 | 0.961 ± 0.064 | 1.01 ± 0.033 | 0.988 ± 0.028 | 1.01 ± 0.021 | 1.04 ± 0.021 | 1.05 ± 0.054 | 0.8973 ± 0.0033 | 0.582 ± 0.0097
4 | CCc1cc2c(cc1N1CCC(N3CCOCC3)CC1)C(C)(C)c1[nH]c3cc(C#N)ccc3c1C2=O [Alectinib] | 0.987 ± 0.02 | 0.993 ± 0.027 | 1.01 ± 0.019 | 1.002 ± 0.0077 | 0.996 ± 0.038 | 1.04 ± 0.012 | 0.988 ± 0.057 | 1.07 ± 0.032 | 0.9953 ± 0.0051 | 1.06 ± 0.058 | 1.14 ± 0.016
5 | COCc1c(-c2cc3cc(C)cc(OC)c3s2)c2c(N)ncnn2c1CN1CCNC(=O)C1 [Rogaratinib] | 1.075 ± 0.01 | 1.03 ± 0.021 | 0.977 ± 0.025 | 1.01 ± 0.036 | 0.964 ± 0.032 | 0.901 ± 0.028 | 0.879 ± 0.0097 | 0.819 ± 0.031 | 0.795 ± 0.014 | 0.757 ± 0.013 | 0.691 ± 0.021
6 | CN1CCC(COc2cnc(-c3cccc(Cn4nc(-c5cccc(C#N)c5)ccc4=O)c3)nc2)CC1 [Tepotinib] | 1.025 ± 0.0083 | 1.02 ± 0.015 | 1.01 ± 0.021 | 1.01 ± 0.018 | 0.984 ± 0.028 | 0.988 ± 0.035 | 0.951 ± 0.029 | 0.976 ± 0.039 | 0.93 ± 0.046 | 0.977 ± 0.027 | 0.573 ± 0.17
7 | Cc1cnc(Nc2ccc(OCCN3CCCC3)cc2)nc1Nc1cccc(S(=O)(=O)NC(C)(C)C)c1 [Fedratinib] | 1.058 ± 0.01 | 1.02 ± 0.05 | 1.03 ± 0.038 | 1.02 ± 0.016 | 0.987 ± 0.048 | 1 ± 0.046 | 0.915 ± 0.018 | 0.764 ± 0.036 | 0.533 ± 0.022 | 0.184 ± 0.0053 | 0.00437 ± 0.0012
8 | Cn1cnc2c(F)c(Nc3ccc(Br)cc3F)c(C(=O)NOCCO)cc21 [Binimetinib] | 1.06 ± 0.021 | 1.08 ± 0.032 | 1.04 ± 0.019 | 0.993 ± 0.018 | 0.981 ± 0.038 | 0.889 ± 0.065 | 0.841 ± 0.092 | 0.832 ± 0.019 | 0.806 ± 0.019 | 0.739 ± 0.026 | 0.661 ± 0.013
9 | C[C@@H]1CCN(C(=O)CC#N)C[C@@H]1N(C)c1ncnc2[nH]ccc12 [Tofacitinib] | 1.08 ± 0.025 | 1.07 ± 0.06 | 1.03 ± 0.036 | 1.04 ± 0.027 | 0.986 ± 0.039 | 1.02 ± 0.031 | 0.989 ± 0.033 | 1.01 ± 0.034 | 0.998 ± 0.054 | 1 ± 0.022 | 0.884 ± 0.035
10 | Nc1cc(C(F)(F)F)c(-c2cc(N3CCOCC3)nc(N3CCOCC3)n2)cn1 [Buparlisib] | 0.984 ± 0.018 | 0.956 ± 0.011 | 0.971 ± 0.011 | 0.982 ± 0.042 | 0.966 ± 0.059 | 0.9295 ± 0.0043 | 0.889 ± 0.03 | 0.835 ± 0.018 | 0.654 ± 0.0079 | 0.381 ± 0.015 | 0.266 ± 0.0047
11 | Cn1cc(-c2cc3c(N4CCN(c5ncc([C@@](C)(N)c6ccc(F)cc6)cn5)CC4)ncnn3c2)cn1 [Avapritinib] | 0.96 ± 0.072 | 0.905 ± 0.043 | 0.894 ± 0.057 | 0.92 ± 0.012 | 0.894 ± 0.04 | 0.883 ± 0.051 | 0.871 ± 0.036 | 0.819 ± 0.04 | 0.819 ± 0.02 | 0.776 ± 0.03 | 0.715 ± 0.042
12 | C=CC(=O)N1CCC([C@@H]2CCNc3c(C(N)=O)c(-c4ccc(Oc5ccccc5)cc4)nn32)CC1 [Zanubrutinib] | 1.07 ± 0.066 | 1.05 ± 0.048 | 1.04 ± 0.034 | 1.03 ± 0.038 | 1.03 ± 0.044 | 1.03 ± 0.044 | 1.02 ± 0.029 | 0.965 ± 0.034 | 0.917 ± 0.057 | 0.828 ± 0.041 | 0.657 ± 0.023
13 | CCCS(=O)(=O)Nc1ccc(F)c(C(=O)c2c[nH]c3ncc(-c4ccc(Cl)cc4)cc23)c1F [Vemurafenib] | 0.958 ± 0.033 | 0.979 ± 0.055 | 0.965 ± 0.038 | 0.954 ± 0.052 | 1.01 ± 0.011 | 0.993 ± 0.022 | 0.949 ± 0.032 | 0.981 ± 0.031 | 0.925 ± 0.015 | 0.703 ± 0.024 | 0.567 ± 0.14
14 | COc1cc2c(Oc3ccc4[nH]c(C)cc4c3F)ncnc2cc1OCCCN1CCCC1 [Cediranib] | 0.971 ± 0.026 | 0.993 ± 0.025 | 1.004 ± 0.0039 | 0.999 ± 0.024 | 0.954 ± 0.011 | 0.949 ± 0.016 | 0.908 ± 0.013 | 0.848 ± 0.035 | 0.79 ± 0.034 | 0.751 ± 0.11 | 0.0589 ± 0.0064
15 | CC[C@H](Nc1ncnc2[nH]cnc12)c1nc2cccc(F)c2c(=O)n1-c1ccccc1 [Idelalisib] | 1.06 ± 0.038 | 1.05 ± 0.053 | 1.04 ± 0.048 | 1.05 ± 0.02 | 1.01 ± 0.043 | 0.969 ± 0.016 | 0.952 ± 0.045 | 0.931 ± 0.043 | 0.831 ± 0.042 | 0.752 ± 0.011 | 0.573 ± 0.027
16 | Cc1cc(Nc2ncnc3ccc(NC4=NC(C)(C)CO4)cc23)ccc1Oc1ccn2ncnc2c1 [Tucatinib] | 1.06 ± 0.053 | 1.04 ± 0.03 | 1.06 ± 0.03 | 1.04 ± 0.043 | 0.989 ± 0.045 | 0.931 ± 0.026 | 0.936 ± 0.031 | 0.895 ± 0.026 | 0.855 ± 0.053 | 0.897 ± 0.064 | 0.936 ± 0.0098
17 | N#CC[C@H](C1CCCC1)n1cc(-c2ncnc3[nH]ccc23)cn1 [Ruxolitinib] | 1.049 ± 0.0061 | 1.1 ± 0.052 | 1.1 ± 0.027 | 1.09 ± 0.029 | 1.09 ± 0.029 | 1.09 ± 0.014 | 1.05 ± 0.021 | 1.04 ± 0.011 | 1.03 ± 0.038 | 1.02 ± 0.033 | 0.807 ± 0.012
18 | Cc1ccc(F)c(NC(=O)Nc2ccc(-c3cccc4[nH]nc(N)c34)cc2)c1 [Linifanib] | 1.08 ± 0.035 | 0.998 ± 0.023 | 1.02 ± 0.012 | 1.02 ± 0.015 | 1 ± 0.036 | 1.01 ± 0.057 | 0.982 ± 0.055 | 1.037 ± 0.009 | 1.07 ± 0.018 | 1.07 ± 0.036 | 0.9638 ± 0.0037
19 | Cc1nc(NC(=O)N2CCC[C@H]2C(N)=O)sc1-c1ccnc(C(C)(C)C(F)(F)F)c1 [Alpelisib] | 1.02 ± 0.034 | 1 ± 0.024 | 1.01 ± 0.011 | 0.973 ± 0.028 | 0.977 ± 0.072 | 0.902 ± 0.027 | 0.9309 ± 0.0035 | 0.903 ± 0.039 | 0.819 ± 0.061 | 0.731 ± 0.024 | 0.594 ± 0.037
